Legend:
[1] = test system: S. aureus; assay: Disc clearing assay; assay type: cell-based, Staphylococcus aureus; conditions: result in words
Method: Disc clearing assay: The disc diffusion test was performed on Mueller Hinton (MH) agar plates for bacterial cultures and yeast extract, peptone, dextrose (YPD) for fungal cultures. The assay was repeated 3 times. Discs were soaked in 10 μl of either DMSO or 10 mg/ml compound stock solution and air-dried. Three hundred microliters of an overnight culture of bacteria or fungi were spread on plates. After completely drying the agar plate in a laminar flow hood, DMSO or compound impregnated discs were overlaid on the plate and incubated at 35° C. for 18 hrs.
The disc diffusion test was carried out in triplicate on cation-adjusted Miller-Hinton agar. 6 mm discs were impregnated with 50 μg of compounds and air-dried. Three hundred microliters of an overnight S. aureus MW2 culture was spread on an agar plate and air-dried. The antimicrobial discs were overlaid on the plate and incubated at 37° C. for 20 hrs.

[2] = test system: S. aureus MW2 (MRSA) in neutropenic mouse thigh; assay type: in vivo
Method: Deep-seated mouse thigh infection model for evaluating drug efficacy. A previously described protocol to mimic a chronic, deep-tissue infection was used with modifications (See, e.g., Conlon, B. P. et al. Activated ClpP kills persisters and eradicates a chronic biofilm infection. Nature 503, 365-370 (2013)). Six-week-old female CD1 ICR outbred mice (20-25 g) were obtained from Charles River Laboratories. To make mice neutropenic, 150 mg/kg and 100 mg/kg of cyclophosphamide were administered intraperitoneally (i.p.) at 4 days and 1 day before infection, respectively. On the day of infection, ˜10^7 cells of stationary-phase S. aureus MW2 resuspended in 50 μl saline were injected to the right thigh of each mouse. […] Control mice were injected with 200 μl of 10% Kolliphor EL/ethanol in saline i.p. every 12 h for 3 days. After euthanizing mice at 96 h post-infection, blood was collected by cardiac puncture and the infected thighs were aseptically excised. All samples were stored at 4° C. until use. Serum was analyzed for alanine aminotransferase and urea nitrogen content with commercially available kits, following the manufacturer's protocol (Pointe Scientific, Canton, Mich., USA). Thighs were homogenized in PBS and the number of MRSA in homogenates was enumerated by serial dilution and spot-plating on TSA plates, and bacterial load was recorded as CFU/g thigh tissue. […] Statistical significance among each group was analyzed by one-way ANOVA with post-hoc Tukey test using PASW Statistics 18 (SPSS Inc. Chicago, Ill., USA).
At 12 h after the last treatment, mice were euthanized and their thighs were excised and homogenized. […] Statistical differences between control and antibiotic treatment groups were analyzed by one-way ANOVA and post-hoc Tukey test (***p<0.001).
At 12 h after the last treatment, mice were euthanized, blood was collected and analyzed for ALT and BUN. […] Control and antibiotic treatment were analyzed by one-way ANOVA and post-hoc Tukey test to confirm a lack of significant difference

O=C(O)c1ccc2cc(-c3ccc(O)c(C45CC6CC(CC(C6)C4)C5)c3)ccc2c1 [CD437, 6-(4-hydroxy-3-tricyclo[3.3.1.13,7]dec-1-ylphenyl)-2-naphthalenecarboxylic acid]
zone of inhibition, S. aureus [1]: inhibits the growth
MRSA cells killed in thigh ([2]; CD437 20 mg/kg i.p. alone, every 12 h for 3 days): ~90%
persisters killed in thigh, combination ([2]; CD437 20 mg/kg i.p. plus gentamicin 30 mg/kg s.c., every 12 h for 3 days): ~99%
serum levels of ALT or BUN ([2]; mouse, in vivo, ip, 20 mg/kg): did not have elevated serum levels

Reference: patent US11707442B2, “Antibacterial and antifungal compounds” (The General Hospital Corporation, priority 2015, dated 2023)
